The source of these data is patent US20060058227A1, “Hedgehog-related prophylaxis, therapy and diagnosis of gi tract carcinogenesis” (Academisch Ziekenhulis bij de Universiteit van Amsterdam, priority 2002, published 2006).

In assay [1] the test system is colonic epithelial cell differentiation. Kind of assay: Cyclopamine treatment of rats: markers of colonic epithelial differentiation (Western blot, H&E, immunohistochemistry). The class given is in vivo, rat. The following applies: for carbonic anhydrase (CA) IV expression in enterocytes / intestinal trefoil factor expression in the enterocytes / Villin distribution in enterocytes: rat colon; for carbonic anhydrase (CA) IV expression in enterocytes: CA IV immunohistochemistry, cyclopamine treated vs control (FIG. 11G,H); for intestinal trefoil factor expression in the enterocytes: ITF immunohistochemistry, cyclopamine treated vs control (FIG. 11I-L); for Villin distribution in enterocytes: Villin immunohistochemistry, cyclopamine treated vs control (FIG. 11E,F); for enterocyte maturation / terminal differentiation of enterocytes in the colon: H&E and immunohistochemistry. The method, then:
(§1) Formalin fixed paraffin embedded human biopsy and resection specimens of uninflamed colonic mucosa, sporadic adenomas, sporadic carcinomas and adenomas from patients with FAP were obtained from the archives of the pathology department of the Academic Medical Center following institutional standards for human subject research. Immunohistochemistry was performed on 4μ sections using a three-step diaminobenzidine (DAB) detection method with antigen retrieval as described in detail previously (van den Brink et al., 2000). For BrdU visualisation, sections were incubated in 2N HCl at 37° C. for 60 minutes after deparaffinization and then washed in boric acid pH 8.5. Sections were counterstained with Mayer's hematoxylin, except when stained for HNF3β, engrailed-1 or β-catenin to allow optimal visualisation of nuclear staining. BrdU positive nuclei were scored as described (van den Brink et al., 2001).
(§2) The distal half of the rat colon was dissected along the longitudinal axis and one half was homogenised and processed for Western blotting as described below. Murine stomach and small intestine were homogenised in lysis buffer (300 mmol/L NaCl, 30 mmol/L Tris, 2 mmol/L MgCl2, 2 mmol/L CaCl2, 1% Triton X-100, pH 7.4, supplemented with 1 tablet of protease inhibitor [Roche] per 50 ml). Protein concentration was measured using the Bradford method. Lysates were diluted 1:3 in protein sample buffer (125 mmol/L Tris/HCl, pH 6.8; 4% sodium dodecyl sulfate; 2% β-mercaptoethanol; 20% glycerol, 1 mg bromophenol blue), and 100-200 μof homogenate was loaded per lane on a sodium dodecyl sulfate-pol-yacrylamide gel electrophoresis gel. After protein separation, the proteins were blotted on to a PVDF membrane (Millipore, Bedford, Mass.). Membranes were blocked with 2% protifar (Nutricia, Zoetermeer, The Netherlands) in phosphate-buffered saline (PBS), supplemented with 0.1% Tween-20 for 1 hour at room temperature. After a brief wash in washing buffer (0.2% protifar; 0.1% Tween-20), membranes were incubated overnight at 4° C. with antibody diluted in washing buffer at the indicated concentration. The next day, membranes were washed 3 times for 5 minutes each and subsequently incubated with a secondary horseradish peroxidase tHRP)-conjugated antibody in a 1:2000 dilution. After enhanced chemoluminescence using Lumilight^+ substrate (Roche, Mannheim, Germany), antibody binding was visualised using a Lumi-Imager (Boehringer Mannheim, Mannheim, Germany).
(§3) In addition to the mice described above, 8-week-old female Wistar rats (n=7) were treated with daily intraperitoneal injections of 1 mg/kg of the Hedgehog inhibitor cyclopamine complexed with 2-hydroxypropyl-β-cyclodextrin (HBC; Sigma) as described (van den Brink et al., 2001). Control rats (n=7) received solvent only. After 14 days, rats were given a single intraperitoneal injection of 150 mg/kg BrdU one hour before being killed.
(§4) The distal half of the rat colon was dissected along the longitudinal axis and one half was homogenised and processed for Western blotting as described (van den Brink et al., 2001). To study Shh expression in the human GI tract we used specimens from the archives of the department of pathology of the Academic Medical Center and the Department of Pathology of the Massachusetts General Hospital and Brigham and Women's Hospital. We examined tissue with normal histology of at least 6 different patients to investigate each site along the normal GI tract for Shh expression. Other specimens included: tissue from 16 different patients with intestinal metaplasia of the stomach, 13 resection specimens of Meckel's diverticulum and 6 resection specimens of patients with Barrett's esophagus.
(In general: Immunoblotting shows a protein as a band on a membrane.)

The subject of the next assay is Hh signalling. Kind of assay: Cyclopamine treatment of rats: Western blots of putative Hedgehog regulated proteins in colonic homogenates. The assay is classed as in vivo. The conditions noted are these: adult rat colon homogenate, Western blot. The method, then:
as §2, §3, §4

For another assay, the system named is HT-29 cells. Kind of assay: Butyrate induced differentiation of HT-29 cells, with or without cyclopamine (Western blot). The conditions noted are these: HT-29 cultures, 2 μ/ml cyclopamine plus butyrate, 24 hours, Western blot (FIGS. 13a,b). The class given is cell-based. The procedure: as §2
HT 29 colon cancer cell lines were cultured according to routine procedures in the presence of 10% fetal calf serum (GIBCO). Recombinant Shh (R&D systems) was used at the indicated concentrations; Butyrate (Sigma) was used at a 5 mM concentration.

The subject of assay [2] is precursor cell proliferation in the adult colon. The experiment in a line: Cyclopamine treatment of rats: markers of proliferation in the adult colon (Western blot, BrdU labelling). The class given is in vivo, rat. The procedure:
as §1, §2
In addition to the mice described above, 8-week-old female Wistar rats (n=7) were treated with daily intraperitoneal injections of 1 mg/kg of the Hedgehog inhibitor cyclopamine complexed with 2-hydroxypropyl-β-cyclodextrin (HBC; Sigma) as described (van den Brink et al., 2001). Control rats (n=7) received solvent only. […]

Regarding `CC1=C2C[C@H]3[C@@H](CC=C4C[C@@H](O)CC[C@@]43C)[C@@H]2CC[C@]12O[C@@H]1C[C@H](C)CN[C@H]1[C@H]2C` [cyclopamine], the “Intestinal trefoil factor (ITF/TFF3) expression, goblet cell lineage marker” value in assay [1] (adult rat colon homogenate, Western blot, cyclopamine 1 mg/kg i.p. daily for 14 days (FIG. 4, P=0.008)) is “strong induction”. Further, the “expression of Villin, marker of enterocyte differentiation” value in assay [1] (adult rat colon homogenate, Western blot, cyclopamine 1 mg/kg i.p. daily for 14 days (FIG. 4, P=0.02)) is reported as “reduced”. In assay [1], the “carbonic anhydrase (CA) IV expression in enterocytes” value is listed as “loss”, the “intestinal trefoil factor expression in the enterocytes” value is “induction” and the “Villin distribution in enterocytes” value is listed as “villin-redistribution”. In addition, in assay [1] (listed as Cyclopamine), the “carbonic anhydrase (CA) IV expression in enterocytes” value is given as “Loss”; the “intestinal trefoil factor expression in the enterocytes” value is given as “strong immunoreactivity”; the “Villin distribution in enterocytes” value was “apical staining is diminished and cytoplasmic staining enhanced”. Besides, the “enterocyte maturation / terminal differentiation of enterocytes in the colon” value in assay [1] (rat distal colon, cyclopamine treated vs control (FIG. 11)) was “inhibited”. Also, the “enterocyte maturation / terminal differentiation of enterocytes in the colon” value in assay [1] (rat distal colon, cyclopamine treated vs control (FIG. 11), listed as Cyclopamine) is listed as “disturbs”. For the same molecule, the “histoarchitecture of the colon” value in assay [1] (rat distal colon, H&E, cyclopamine treated vs control (FIG. 11)) was “dramatic changes”. In addition, in the assay on Hh signalling (cyclopamine 1 mg/kg i.p. daily for 14 days vs solvent controls (FIG. 3, P=0.0001)), the “levels of BMP4” value is recorded as “markedly induced”. In addition, the HNF3β protein level entry in the assay on Hh signalling (cyclopamine 1 mg/kg i.p. daily for 14 days vs solvent controls (FIG. 3, P=0.001)) is recorded as “dramatically upregulated”. The engrailed-1 protein level entry with Hh signalling (cyclopamine 1 mg/kg i.p. daily for 14 days vs solvent controls (FIG. 3, P=0.002)) was “dramatically upregulated”. Besides, the GATA-6 protein level entry in the assay on Hh signalling (cyclopamine 1 mg/kg i.p. daily for 14 days vs solvent controls (FIG. 3, P=0.005)) is “significantly downregulated”. Also, the “Ihh expression under Hh inhibition” value with Hh signalling (cyclopamine 1 mg/kg i.p. daily for 14 days vs solvent controls (FIG. 3, P=0.08)) was “not necessary for maintenance of its own expression”. The “expression levels of BMP-2” value in the assay on Hh signalling (cyclopamine 1 mg/kg i.p. daily for 14 days vs solvent controls (FIG. 3, P=0.25)) is “no effect”. Further, in the assay on HT-29 cells, the “butyrate mediated induction of E-cadherin” value was “significantly reduced”, the “butyrate mediated induction of Villin” value was “significantly reduced” and the “butyrate mediated induction of cip-1” value is “significantly reduced”. For the same molecule, the “expression of PCNA” value in assay [2] (adult rat colon homogenate, Western blot, cyclopamine 1 mg/kg i.p. daily for 14 days (FIG. 4, P<0.0001)) is “increased”. The “expression of cyclin D1” value in assay [2] (adult rat colon homogenate, Western blot, cyclopamine 1 mg/kg i.p. daily for 14 days (FIG. 4, P=0.01)) is given as “increased”. The “mitogenesis (PCNA, cyclin D1, BrdU labelled epithelial precursor cells)” value in assay [2] (adult rat colon, cyclopamine treated vs control (FIG. 12)) was “enhanced”. Also, the “incorporation of 5-bromo-2′-deoxyuridine (BrdU labelled cells per crypt)” value in assay [2] (adult rat colon, cyclopamine 1 mg/kg i.p. daily for 14 days, BrdU 150 mg/kg one hour before killing (FIG. 4, P=0.036)) is listed as “increased”.
